Entries after “also recorded” stand apart in the source; their conditions may differ. Where a name gives a salt, the structure may show the parent alone. Read-outs that look alike come from different tables or passages of the source.
Tests used:
[1] = tested on: Human primary keratinocytes; test: Keratinocyte growth in culture media: rhodamine B staining, confluency measured with Operetta plate reader; type: cell-based; details: for effect of ROCK inhibitor on keratinocyte growth, FIG. 3: Y27632 10 μm vs SB772077B 400 nM in Base, Kelch's or Green's medium, 3 donors; for effect of Y27632 on keratinocyte growth, FIG. 5: 8 days
epidermal cells = test: Greens, Cellntech, S7, EDGS medium comparison (rhodamine B, confluency score 0 to 4); type: cell-based; details: added to Green's medium with MEFs and commercial keratinocyte growth media
Procedure: Epidermal cells were grown in Greens medium with MEFs, CnT Prime, Epilife medium supplemented with S7 or EDGS. All media were tested with and without ROCK inhibitor Y27632. 550,000 epidermal cells were grown in each medium until one sample reached 80% confluence, at this point all samples were fixed and stained for rhodamine B. Sample confluency was then assigned a score between 0 and 4, 0 having no cells, and 4 having maximum confluency. N=2.
Flasks were pre-coated with a coating matrix for S7 and EDGS supplemented Epilife medium samples. 1.7 ml of dilution buffer was added to each T25 flask. Then 17 μl of coating matrix was added. The mixture was incubated at room temperature for 30 minutes. Next, the dilution buffer and coating matrix mix were removed from the flasks before adding cells and media.
550,000 epidermal cells and 5 ml of each required medium was added, with or without 10 μl Y27632, to a T25 flask. The flask was incubated at 37° C. with 5% CO2 until one sample reached 80% confluency.
Next, the medium was removed from the flasks and the cells fixed with 4% formaldehyde for 30 minutes. 1% rhodamine B solution was added and the cells incubated at room temperature for 10 minutes. The rhodamine B solution was removed and the cells thoroughly rinsed with water. Finally, all liquid from the flasks was removed using a pipette. The cells were imaged and confluency was calculated.

[2] = Green's media + Y27632, MEFs not present

Compound: CCn1c(-c2nonc2N)nc2cncc(C(=O)N3CC[C@H](N)C3)c21 [SB772077B, (3S)-1-[[2-(4-Amino-1,2,5-oxadiazol-3-yl)-1-ethyl-1H-imidazo[4,5-c]pyridin-7-yl]carbonyl]-3-pyrrolidinamine dihydrochloride, reference compound]
- ROCK inhibitor concentration to achieve the same effect (enhancing keratinocyte growth rates) ([1]; SB 772077B vs Y27632): ~400 nm
- effect of ROCK inhibitor on keratinocyte growth, FIG. 3 ([1]; dihydrochloride): comparable effects on keratinocyte growth; also recorded: can be used as substitute for Y27632 for keratinocyte growth

Compound: C[C@@H](N)[C@H]1CC[C@H](C(=O)Nc2ccncc2)CC1 [Y27632, reference compound]
- effect of ROCK inhibitor on keratinocyte growth, FIG. 3 [1]: comparable effects on keratinocyte growth
- ROCK inhibitor concentration to achieve the same effect (enhancing keratinocyte growth rates) ([1]; Y27632 vs SB 772077B): 10 μm
- effect of Y27632 on keratinocyte growth, FIG. 5 ([1]; added to Green's medium with MEFs): can enhance growth of keratinocytes
- effect of Y27632 on keratinocyte growth, FIG. 5 ([1]; added to serum-free Optipeak media): enhanced growth of keratinocytes; also recorded: a few colonies started to develop
- effect of Y27632 on keratinocyte growth, FIG. 6 (epidermal cells): may also enhance growth of keratinocytes in other keratinocyte growth media; also recorded: enhanced keratinocyte growth in Green's medium, S7 medium and CnT Prime medium

Compound: Nc1ncnc2nc[nH]c12 [adenine]
- effect on keratinocyte growth of leaving one component out of Green's media, FIG. 1 [1, 2]: appears to enhance growth of keratinocytes

Compound: EGF: epidermal growth factor, component of Green's medium at 10 ng/ml (NSDSECPLSHDGYCLHDGVCMYIEALDKYACNCVVGYIGERCQYRDLKWWELR; Epidermal growth factor; UniProt P01133 971-1023, looked up)
- effect on keratinocyte growth of leaving one component out of Green's media, FIG. 1 [1, 2]: important components of Green's medium in generating keratinocyte proliferation; also recorded: negatively affect keratinocyte growth
- effect of EGF on keratinocyte growth (later finding) ([1]; data not shown): not enhancing keratinocyte growth

Compound: choleratoxin
- effect on keratinocyte growth of leaving one component out of Green's media, FIG. 1 [1]: important components of Green's medium in generating keratinocyte proliferation; also recorded: negatively affect keratinocyte growth; also recorded: one of the most important single ingredients of Green's media

— patent US20250179429A1, “CELL CULTURE MEDIUM” (Auckland UniServices Limited, priority 2017, published 2025)
